According to patent US8207177B2, “Inhibitors of E1 activating enzymes” (Millennium Pharmaceuticals, Inc., priority 2006, dated 2012):

Target: T1, recombinant human NAE enzyme (Homo sapiens, UniProt Q8TBC4)
T1 construct: His (N); made in house; host or cells: Sf9 insect cells (baculovirus, Bac-to-Bac), purified on Ni-NTA
T1 sequence (Q8TBC4 1-463): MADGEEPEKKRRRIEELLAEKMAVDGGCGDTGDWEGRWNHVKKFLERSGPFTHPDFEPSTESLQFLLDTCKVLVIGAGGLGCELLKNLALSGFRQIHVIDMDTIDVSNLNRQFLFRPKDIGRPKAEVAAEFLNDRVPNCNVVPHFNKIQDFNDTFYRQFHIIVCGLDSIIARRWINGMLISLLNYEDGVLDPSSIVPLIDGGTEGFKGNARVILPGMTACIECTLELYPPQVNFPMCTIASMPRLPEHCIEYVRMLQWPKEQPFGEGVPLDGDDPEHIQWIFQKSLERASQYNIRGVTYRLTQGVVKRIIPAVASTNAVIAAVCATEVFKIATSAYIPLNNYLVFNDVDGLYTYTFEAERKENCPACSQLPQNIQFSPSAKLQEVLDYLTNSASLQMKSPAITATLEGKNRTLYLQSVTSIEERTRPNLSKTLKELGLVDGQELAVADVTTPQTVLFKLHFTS
T1 sequence (Q13564 1-534 partner): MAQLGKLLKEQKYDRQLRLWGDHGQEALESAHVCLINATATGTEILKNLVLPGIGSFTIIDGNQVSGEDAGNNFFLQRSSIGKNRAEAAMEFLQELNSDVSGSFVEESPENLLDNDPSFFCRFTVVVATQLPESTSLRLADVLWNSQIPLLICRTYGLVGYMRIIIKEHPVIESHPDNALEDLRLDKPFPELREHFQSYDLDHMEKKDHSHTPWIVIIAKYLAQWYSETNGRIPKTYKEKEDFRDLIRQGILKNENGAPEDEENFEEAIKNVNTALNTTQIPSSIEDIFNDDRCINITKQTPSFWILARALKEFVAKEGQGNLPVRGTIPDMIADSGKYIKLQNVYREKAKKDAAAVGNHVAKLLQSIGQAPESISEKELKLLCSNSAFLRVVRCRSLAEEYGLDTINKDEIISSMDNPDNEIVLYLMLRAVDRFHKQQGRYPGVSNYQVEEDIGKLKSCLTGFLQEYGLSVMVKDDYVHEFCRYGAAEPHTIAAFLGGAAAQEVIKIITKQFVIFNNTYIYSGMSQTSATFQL
Assay: Nedd8-Activating Enzyme (NAE) HTRF Assay
Type: biochemical
Conditions: threshold statement: less than or equal to 100 nM; 20 μM ATP, 90 minutes at 24° C.
Procedure: Following manufacturer instructions, baculoviruses were generated with the Bac-to-Bac Expression System (Invitrogen) for the following proteins: untagged NAEα (APPBP1; NP_003896.1), N-terminally His-tagged NAEβ (UBE1C; NP_003959.3), untagged SAEα (SAE1; NP_005491.1), N-terminally His-tagged SAEβ (UBA2; NP_005490.1), N-terminally His-tagged murine UAE (UBE1X; NP_033483). NAEα/His-NAEβ and SAEα/His-SAEβ complexes were generated by co-infection of Sf9 cells, which were harvested after 48 hours. His-mUAE was generated by single infection of Sf9 cells and harvested after 72 hours. Expressed proteins were purified by affinity chromatography (Ni—NTA agarose, Qiagen) using standard buffers. Ubc12 (UBE2M; NP_003960.1), Ubc9 (UBE2I; NP_003336.1), Ubc2 (UBE2A; NP_003327.2) were subcloned into pGEX (Pharmacia) and expressed as N-terminally GST tagged fusion proteins in E. coli. Expressed proteins were purified by conventional affinity chromatography using standard buffers. Nedd8 (NP_006147), Sumo-1 (NP_003343) and Ubiquitin (with optimized codons) were subcloned into pFLAG-2 (Sigma) and expressed as N-terminally Flag tagged fusion proteins in E. coli. Expressed proteins were purified by conventional chromatography using standard buffers. Nedd8-Activating Enzyme (NAE) HTRF Assay. The NAE enzymatic reaction totaled 50 μL and contained 50 mM HEPES (pH 7.5), 0.05% BSA, 5 mM MgCl2, 20 μM ATP, 250 μM GSH, 0.01 μM Ubc12-GST, 0.075 μM Nedd8-Flag and 0.28 nM recombinant human NAE enzyme. The enzymatic reaction mixture, with and without compound inhibitor, was incubated at 24° C. for 90 minutes in a 384-well plate before termination with 25 μL of Stop/Detection buffer (0.1M HEPES pH 7.5, 0.05% Tween20, 20 mM EDTA, 410 mM KF, 0.53 nM Europium-Cryptate labeled monoclonal anti-FLAG M2 antibody (CisBio International) and 8.125 μg/mL PHYCOLINK goat anti-GST allophycocyanin (XL-APC) antibody (Prozyme)). After incubation for 3 hours at 24° C., quantification of the FRET was performed on the Analyst™ HT 96.384 (Molecular Devices).

## NS(=O)(=O)OC[C@@H]1C[C@@H](n2ccc3c(N[C@H]4CCc5c(Br)cccc54)ncnc32)C[C@@H]1O [Compound I-65, [(1S,2S,4R)-4-(4-{[(1S)-4-bromo-2,3-dihydro-1H-inden-1-yl]amino}-7H-pyrrolo[2,3-d]pyrimidin-7-yl)-2-hydroxycyclopentyl]methyl sulfamate]
  IC50: ≤ 100 nM

## NS(=O)(=O)OC[C@@H]1C[C@@H](n2ccc3c(N[C@H]4CCc5c(Cl)cccc54)ncnc32)C[C@@H]1O [Compound I-64, [(1S,2S,4R)-4-(4-{[(1S)-4-chloro-2,3-dihydro-1H-inden-1-yl]amino}-7H-pyrrolo[2,3-d]pyrimidin-7-yl)-2-hydroxycyclopentyl]methyl sulfamate]
  IC50: ≤ 100 nM

## NS(=O)(=O)OC[C@@H]1C[C@@H](n2cc(F)c3c(N[C@H]4CCc5ccccc54)ncnc32)C[C@@H]1O [Compound I-68, ((1S,2S,4R)-4-{4-[(1S)-2,3-dihydro-1H-inden-1-ylamino]-5-fluoro-7H-pyrrolo[2,3-d]pyrimidin-7-yl}-2-hydroxycyclopentyl)methyl sulfamate]
  IC50: ≤ 100 nM

## NS(=O)(=O)OC[C@@H]1C[C@@H](n2ccc3c(N[C@H]4CCc5cc(Br)ccc54)ncnc32)C[C@@H]1O [Compound I-33, [(1S,2S,4R)-4-(4-{[(1S)-5-bromo-2,3-dihydro-1H-inden-1-yl]amino}-7H-pyrrolo-[2,3-d]pyrimidin-7-yl)-2-hydroxycyclopentyl]methyl sulfamate]
  IC50: ≤ 100 nM

## NS(=O)(=O)OC[C@@H]1C[C@@H](n2ccc3c(CCc4ccccc4)ncnc32)C[C@@H]1O [Compound I-28, {(1S,2S,4R)-2-hydroxy-4-[4-(2-phenylethyl)-7H-pyrrolo[2,3-d]pyrimidin-7-yl]-cyclopentyl}methyl sulfamate]
  IC50: ≤ 100 nM

## CC[C@@H]1Cc2ccccc2[C@@H]1Nc1ncnc2c1ccn2[C@@H]1C[C@@H](COS(N)(=O)=O)[C@@H](O)C1 [Compound I-83, [(1S,2S,4R)-4-(4-{[(1R,2R)-2-ethyl-2,3-dihydro-1H-inden-1-yl]amino}-7H-pyrrolo[2,3-d]pyrimidin-7-yl)-2-hydroxycyclopentyl]methyl sulfamate]
  IC50: ≤ 100 nM

## NS(=O)(=O)NC[C@@H]1C[C@@H](n2ccc3c(N[C@H]4CCc5ccccc54)ncnc32)C[C@@H]1O [Compound I-56, N-[((1S,2S,4R)-4-{4-[(1S)-2,3-dihydro-1H-inden-1-ylamino]-7H-pyrrolo[2,3-d]-pyrimidin-7-yl}-2-hydroxycyclopentyl)methyl]sulfamide]
  IC50: ≤ 100 nM

## C[C@H]1Cc2ccccc2[C@H]1Nc1ncnc2c1ccn2[C@@H]1C[C@@H](COS(N)(=O)=O)[C@@H](O)C1 [Compound I-82, [(1S,2S,4R)-2-hydroxy-4-(4-{[(1S,2S)-2-methyl-2,3-dihydro-1H-inden-1-yl]amino}-7H-pyrrolo[2,3-d]pyrimidin-7-yl)cyclopentyl]methyl sulfamate]
  IC50: ≤ 100 nM

## Cc1cc(CNc2ncnc3c2ccn3[C@@H]2C[C@@H](COS(N)(=O)=O)[C@@H](O)C2)no1 [Compound I-41, [(1S,2S,4R)-2-hydroxy-4-(4-{[(5-methylisoxazol-3-yl)methyl]amino}-7H-pyrrolo-[2,3-d]pyrimidin-7-yl)cyclopentyl]methyl sulfamate]
  IC50: ≤ 100 nM

## NS(=O)(=O)/C=C/[C@@H]1C[C@@H](n2ccc3c(N[C@H]4CCc5ccccc54)ncnc32)C[C@@H]1O [Compound I-73, (E)-2-((1S,2S,4R)-4-{4-[(1S)-2,3-dihydro-1H-inden-1-ylamino]-7H-pyrrolo[2,3-d]pyrimidin-7-yl}-2-hydroxycyclopentyl)ethylenesulfonamide]
  IC50: ≤ 100 nM

## C[C@@H]1Cc2ccccc2[C@@H]1Nc1ncnc2c1ccn2[C@@H]1C[C@@H](COS(N)(=O)=O)[C@@H](O)C1 [Compound I-81, [(1S,2S,4R)-2-hydroxy-4-(4-{[(1R,2R)-2-methyl-2,3-dihydro-1H-inden-1-yl]amino)-7H-pyrrolo[2,3-d]pyrimidin-7-yl)cyclopentyl]methyl sulfamate]
  IC50: ≤ 100 nM

## NS(=O)(=O)OC[C@@H]1C[C@@H](n2ccc3c(N[C@H]4CCc5ccccc54)ncnc32)[C@H](O)[C@@H]1O [Compound I-17, ((1S,2R,3S,4R)-4-{4-[(1S)-2,3-dihydro-1H-inden-1-ylamino]-7H-pyrrolo[2,3-d]-pyrimidin-7-yl}-2,3-dihydroxycyclopentyl)methyl sulfamate]
  IC50: ≤ 100 nM

## NS(=O)(=O)OC[C@@H]1C[C@@H](n2ccc3c(N[C@@H]4c5ccccc5C[C@@H]4O)ncnc32)C[C@@H]1O [Compound I-71, [(1S,2S,4R)-2-hydroxy-4-(4-{[(1R,2S)-2-hydroxy-2,3-dihydro-1H-inden-1-yl]amino}-7H-pyrrolo[2,3-d]pyrimidin-7-yl)cyclopentyl]methyl sulfamate]
  IC50: ≤ 100 nM

## CO[C@H]1Cc2ccccc2[C@H]1Nc1ncnc2c1ccn2[C@@H]1C[C@@H](CNS(N)(=O)=O)[C@@H](O)C1 [Compound I-74, N-{[(1S,2S,4R)-2-hydroxy-4-(4-{[(1R,2S)-2-methoxy-2,3-dihydro-1H-inden-1-yl]amino}-7H-pyrrolo[2,3-d]pyrimidin-7-yl)cyclopentyl]methyl}sulfamide]
  IC50: ≤ 100 nM

## NS(=O)(=O)OC[C@@H]1C[C@@H](n2ccc3c(NCc4ccccc4Cl)ncnc32)C[C@@H]1O [Compound I-1, ((1S,2S,4R)-4-{4-[(2-chlorobenzyl)amino]-7H-pyrrolo[2,3-d]pyrimidin-7-yl}-2-hydroxycyclopentyl)methyl sulfamate]
  IC50: ≤ 100 nM

## CNc1ncnc2c1ccn2[C@@H]1C[C@@H](COS(N)(=O)=O)[C@@H](O)C1 [Compound I-40, {(1S,2S,4R)-2-hydroxy-4-[4-(methylamino)-7H-pyrrolo[2,3-d]pyrimidin-7-yl]-cyclopentyl}methyl sulfamate]
  IC50: ≤ 100 nM

## CO[C@@H]1Cc2ccccc2[C@H]1Nc1ncnc2c1ccn2[C@@H]1C[C@@H](COS(N)(=O)=O)[C@@H](O)C1 [Compound I-72, [(1S,2S,4R)-2-hydroxy-4-(4-{[(1R,2R)-2-methoxy-2,3-dihydro-1H-inden-1-yl]amino}-7H-pyrrolo[2,3-d]pyrimidin-7-yl)cyclopentyl]methyl sulfamate]
  IC50: ≤ 100 nM

## NS(=O)(=O)OC[C@@H]1C[C@@H](n2ccc3c(OCc4ccc(Cl)cc4)ncnc32)C[C@@H]1O [Compound I-34, ((1S,2S,4R)-4-{4-[(4-chlorobenzyl)oxy]-7H-pyrrolo[2,3-d]pyrimidin-7-yl}-2-hydroxycyclopentyl)methyl sulfamate]
  IC50: ≤ 100 nM

## NS(=O)(=O)OC[C@@H]1C[C@@H](n2ccc3c(NCc4cc(Cl)cc(Cl)c4)ncnc32)C[C@@H]1O [Compound I-16, ((1S,2S,4R)-4-{4-[(3,5-dichlorobenzyl)amino]-7H-pyrrolo[2,3-d]pyrimidin-7-yl}-2-hydroxycyclopentyl)methyl sulfamate]
  IC50: ≤ 100 nM
